Source: PMC13576449, “Small-Molecule Activators of PRMT1: Discovery, SAR Analyses, and Proapoptotic Effects in Pancreatic Cancer Cells” (Journal of Medicinal Chemistry, 2026)

Columns and labels:
PANC-1 cells = assay: CaspaseGlo 3/7 apoptosis assay, PANC-1; format: cell-based, human; conditions: 72 h
Description: (§1) 6 Effect of small-molecule modulators on gemcitabine-induced apoptosis and tumor growth of PDAC cells. […] After 2 h, gemcitabine (GEM) was added at increasing concentrations (10 and 25 nM) or not (−) for another incubation of 72 h. Subsequently, the luminescence-based caspase3/7 assay was performed. The activity of caspase 3/7 in treated cells was normalized to the activity measured in untreated cells (dark gray bar), which was set to 1 (mean SD, n = 6 for PANC-1 and n = 4 for PaTu8988T; *: p ≤ 0.05, **: p ≤ 0.01, ***: p ≤ 0.001, using the student t-test). […] After 24 h, gemcitabine (GEM, 1 μM) was added (+) or not (−) for another incubation of 48 h. Subsequently, the apoptotic cell fraction was quantified in % by flow cytometry using FITC-labeled Annexin V (AV) and propidium iodide (PI) staining (in B: mean ± SD, n = 6 for PANC-1 and n = 5 for PaTu8988T; **: p ≤ 0.01, ***: p ≤ 0.001, ****: p ≤ 0.0001, using the student t-test). […] Viable cells are AV/PI double-negative (AV–/PI–, lower left quadrant, Q4), early apoptotic cells are AV single-positive (AV+/PI– upper left quadrant, Q1), late apoptotic cells are AV/PI double-positive (AV+/PI+, upper right quadrant, Q2), and necrotic cells are PI single-positive (AV–/PI+, lower right quadrant, Q3). The sum of early and late apoptotic cell numbers ([…] in %) is indicated in red. D-G: The workflow of the PDAC xenograft experiments in mice is depicted in D. PANC-1 cells (2 × 10^6 cells/mouse) were subcutaneously (s.c.) injected in the right flank of female athymic nude mice. Small tumor nodules appeared 6 days post-engraftment. […] Tumor volumes were measured every second day using a digital caliper. […] At the end of the 2 weeks, mice were sacrificed and tumors were dissected (F).
(§2) For quantification of apoptosis using the CaspaseGlo 3/7 assay (Promega), PANC-1 and PaTu8988T cells were seeded in triplicates in white 96-well plate (5 × 10^3 cells/well) and cultured in the absence or presence of compounds. After 2 h, as soon as the cells had settled, gemcitabine was added or not, and cells were incubated for another 72 h. Subsequently, the caspase3/7 activity was measured using the luminescence-based CaspaseGLO-3/7 assay (Promega). To this end, the CaspaseGlo reagent was subsequently added to the cells at a 1:1 ratio and incubated at room temperature and under agitation for 30 min protected from light. The luminescence measurements were carried out using a microplate reader (Mithras LB 940, Berthold).

PaTu8988T cells [1] = assay: CaspaseGlo 3/7 apoptosis assay, PaTu8988T; format: cell-based, human; conditions: 72 h
Description: as §1, §2

PaTu8988T cells [2] = assay: Annexin V/PI flow cytometry apoptosis assay, PaTu8988T; format: cell-based, human; conditions: Homo sapiens, PaTu 8988t, 48 h; read-out: Q4, viable cells (AV–/PI–)
Description: 6 Effect of small-molecule modulators on gemcitabine-induced apoptosis and tumor growth of PDAC cells. […] Subsequently, the luminescence-based caspase3/7 assay was performed. The activity of caspase 3/7 in treated cells was normalized to the activity measured in untreated cells (dark gray bar), which was set to 1 (mean SD, n = 6 for PANC-1 and n = 4 for PaTu8988T; *: p ≤ 0.05, **: p ≤ 0.01, ***: p ≤ 0.001, using the student t-test). […] After 24 h, gemcitabine (GEM, 1 μM) was added (+) or not (−) for another incubation of 48 h. Subsequently, the apoptotic cell fraction was quantified in % by flow cytometry using FITC-labeled Annexin V (AV) and propidium iodide (PI) staining (in B: mean ± SD, n = 6 for PANC-1 and n = 5 for PaTu8988T; **: p ≤ 0.01, ***: p ≤ 0.001, ****: p ≤ 0.0001, using the student t-test). […] Viable cells are AV/PI double-negative (AV–/PI–, lower left quadrant, Q4), early apoptotic cells are AV single-positive (AV+/PI– upper left quadrant, Q1), late apoptotic cells are AV/PI double-positive (AV+/PI+, upper right quadrant, Q2), and necrotic cells are PI single-positive (AV–/PI+, lower right quadrant, Q3). The sum of early and late apoptotic cell numbers (Q2+Q3 in %) is indicated in red. D-G: The workflow of the PDAC xenograft experiments in mice is depicted in D. PANC-1 cells (2 × 10^6 cells/mouse) were subcutaneously (s.c.) injected in the right flank of female athymic nude mice. […] Tumor volumes were measured every second day using a digital caliper. […] At the end of the 2 weeks, mice were sacrificed and tumors were dissected (F).
For quantification of apoptosis by Fluorescence Activated Cell Sorting (FACS), PANC-1 and PaTu8988T cells were seeded in 6-well plates (250 × 10^3 cells/well) and cultured in the absence or presence of compounds. After 24 h, gemcitabine was added or not for another 48 h. After harvesting and washing, unfixed cells (0.5–1 × 10^6) were incubated with FITC-labeled Annexin V and/or PI (BD Pharmingen) according to the manufacturer’s instructions. All samples were analyzed using a BD FACSCalibur flow cytometer (BD Bioscience). Data were acquired using the CellQuestPro program and analyzed with the FlowJo (FlowJo LLC) software.
After 24 hours, gemcitabine (GEM, 1 µM) was added (+) or not
(-) for another incubation of 48 hours. Subsequently, the apoptotic cell fraction was assessed by flow cytometry using FITC-labeled Annexin V (AV) and propidium iodide (PI) staining and quantified in % (mean ± SD, n=3-4; ns: not significant, *: p ≤0.05, **: p ≤0.01, ***: p ≤0.001, ****: p ≤0.0001, using the student t-test).

PANC-1 xenografts = assay: PDAC xenograft mouse model, tumor growth; format: in vivo; conditions: female athymic nude mice, intraperitoneal, 2 weeks; 150 mg/kg TR-07 daily, 10 mg/kg gemcitabine every second day; n = 5
[3] = TR-07 10 μM or gemcitabine 10 and 25 nM
[4] = compound 10 μM, after 2 h gemcitabine 10 and 25 nM

SMILES	apoptosis, caspase 3/7 activity, single agent (PANC-1 cells; [3])	apoptosis, caspase 3/7 activity, single agent (PaTu8988T cells [1]; [3])	viability at 10 µM (PaTu8988T cells [2])	tumor growth of PANC-1 xenografts (PANC-1 xenografts)	gemcitabine-induced apoptosis, caspase 3/7 activity, co-treatment (PANC-1 cells; [4])	gemcitabine-induced apoptosis, caspase 3/7 activity, co-treatment (PaTu8988T cells [1]; [4])
Nc1ccn([C@@H]2O[C@H](CO)[C@@H](O)C2(F)F)c(=O)n1 [gemcitabine, reference compound]	underwent apoptosis in a gemcitabine concentration-dependent manner	underwent apoptosis in a gemcitabine concentration-dependent manner	78.6%	significantly reduced the tumor growth compared to the control mice	–	–
CC(C)Oc1ccc(-c2c[nH]cc2CN(C)CCN)cc1 [MS023, reference compound]	–	–	–	–	diminished	diminished
